Marks after values point to notes of the source that are not given here.
How the values were obtained:
[1] = tested on: HCT116 AZD1152-resistant; assay: Colony formation assay (FIG. 6-B); assay type: cell-based, human; conditions: HCT116 AZD1152-resistant; 48 hours treatment, re-plated drug-free
Experimental: Tumor cell lines were obtained from the American Type Culture Collection (ATCC) unless otherwise specified. The MDA-MB-231-PTX and NCI-H460-PTX cell lines were established by growing the cells in the presence of increasing concentrations of paclitaxel over a period of 6 months. The HCT116 AZD1152-resistant cell line was established by growing the cells in the presence of AZD1152 at 80 nmol/L. Tumor cells were treated with AMG 900, paclitaxel or AZD1152 (0.5, 5, 50 nmol/L) for 48 hours, washed twice with complete media, and cells were re-plated at a density of 5000 cells per well in drug-free complete media. Cells were grown until the DMSO control wells were confluent. Cells were stained with crystal violet dye (Sigma), washed with distilled water, and imaged using a digital scanner (Hewlett-Packard). Colony formation assay was performed with HCT116 cell lines (parental and AZD1152-resistant). Cells were treated with DMSO, AMG 900, AZD1152, or paclitaxel at the indicated concentrations for 48 hours and re-plated in complete media lacking the inhibitor. After the DMSO-treated cells reached confluence, the cells were stained with crystal violet and imaged (duplicate wells).

[2] = tested on: NCI-H460 parental; assay: p-histone H3 fluorescence-based cell imaging assay; set-up: species or system human; conditions: Homo sapiens, P-gp −
Experimental: (§1) All high-content cell assays were performed on an ArrayScan VTi HCS Reader (Cellomics). Tumor cell lines were treated with AMG 900, AZD1152, MK-0457, or PHA-739358 (concentration range varied based on potency). The cells were prepared for intracellular staining with an anti-p-histone H3 Ser^10 antibody as previously described (1). Detection was performed with an anti-rabbit IgG-alexa-568 antibody and DAPI. The cellular levels of p-histone H3 were analyzed using Target Activation V2 algorithm (Cellomics) to determine the percentage of positive cells. For the imaging assays, the concentration-response curves and corresponding IC50 and EC50 values were calculated using the percentage of cells affected versus the DMSO control.

[3] = tested on: MES-SA-Dx5 doxorubicin resistant; assay: p-histone H3 fluorescence-based cell imaging assay; set-up: species or system human; conditions: Homo sapiens
Experimental: as §1

[4] = tested on: MDA-MB-231 PTX paclitaxel resistant; assay: p-histone H3 fluorescence-based cell imaging assay; set-up: species or system human; conditions: Homo sapiens
Experimental: as §1

[5] = tested on: MES-SA parental; assay: p-histone H3 fluorescence-based cell imaging assay; set-up: species or system human; conditions: Homo sapiens, P-gp −
Experimental: as §1

[6] = tested on: MDA-MB-231 parental; assay: p-histone H3 fluorescence-based cell imaging assay; set-up: species or system human; conditions: Homo sapiens, P-gp −
Experimental: as §1

[7] = tested on: NCI-H460 PTX paclitaxel resistant; assay: p-histone H3 fluorescence-based cell imaging assay; set-up: species or system human; conditions: Homo sapiens
Experimental: as §1

[8] = tested on: MDA-MB-231-Taxol-r; assay: Cell cycle DNA content assay (flow cytometry); assay type: cell-based; conditions: Homo sapiens, 24 h, Breast, Paclitaxel-selected, read-out: EC50 @ 24 hours, ≧4N DNA content
Experimental: (§2) MDA-MB-231(F11)-luc parent and taxol-resistant cells were seeded at a density of 250,000 cells/well in a 12-well plate in 1 mL of in the appropriate media, in duplicates. The next day cells were treated with AMG 900 or taxol over a 10-point concentration range with a final DMSO concentration of 0.1% in taxol-free media. After 24 hours, cells were harvested with 1× trypsin-EDTA and transferred to PCR tubes. Cells were centrifuged at 2000 rpm for 4 minutes and the supernatant was aspirated. Cells were fixed in 200 μL of ice cold 90% methanol and stored at −20° C. for at least 24 hours. Fixed cells were centrifuged at 2000 rpm for 4 minutes to remove 90% methanol. Cells were washed with wash buffer and stained with 200 μL of propidium iodide (PI) for 30 minutes at 4° C. in the dark. An additional 400 μL of PI was added before data acquisition. Data was acquired and analyzed by flow cytometry (LSRII). A threshold gate was applied according to +4N (same as ≧4N) DNA content based on DMSO control and low/high drug-treated groups. The data was represented as percentage of control for +4N DNA content positive populations. The +4N DNA content cellular EC50 values were assigned using 4-parameter equation. […] Flow cytometric-based cell cycle analysis was performed to measure the percentage of ≧4N DNA content or SubG1 DNA content positive cells. The dose-response curves for AMG 900 represent the drug concentration plotted against the percentage of ≧4N DNA content positive cells. The dose-response curves for taxol represent the drug concentration plotted against the percentage of SubG1 DNA content positive cells. The EC50 values were calculated by 4-parameter fit model.

[9] = tested on: MDA-MB-231; assay: Cell cycle DNA content assay (flow cytometry); assay type: cell-based; conditions: Homo sapiens, 24 h; MDA-MB-231, Breast, Parent line; read-out: EC50 @ 24 hours, ≧4N DNA content
Experimental: as §2

[10] = tested on: HCT116 xenograft; assay: Xenograft tumor growth inhibition (Example 7); assay type: in vivo, mice; conditions: HCT116, Colon; oral 15 mg/kg b.i.d. 2 consecutive days per week or 3 mg/kg b.i.d. every day, 3 weeks
Experimental: Mice were injected subcutaneously with 2×10^6 human HCT 116 colon tumor cells. When tumors were established (approximately 200 mm^3), mice were randomized into experimental treatment groups (n=10) and treated orally with AMG 900 at 1.5, 2.25 or 3 mg/kg everyday or, 3.75, 7.5 or 15 mg/kg intermittently for the duration of the experiment. Mice were provided nutritional supplements on a daily basis. Tumor volumes and body weights were recorded twice per week using caliper and analytical digital scale, respectfully. Tumor data were represented by mean tumor volume +/−SEM. Statistical significance for tumor growth inhibition was determined by repeated measurements ANOVA (RMANOVA) followed by Scheffe post-hoc analysis.
The in-vivo effect of AMG 900 on tumor growth was further evaluated in a panel of human xenografts from five different tumor types (breast, colon, lung, pancreatic, and uterine), including three MDR xenograft models. Mice bearing established tumors were orally administered AMG 900 at 15 mg/kg b.i.d. for 2 consecutive days per week for 3 weeks or at 3 mg/kg b.i.d. every day for 3 weeks. The maximum percentage of tumor growth inhibition (TGI) is reported, in Table 7 below, for each xenograft model. The percentage of TGI was calculated as the difference between the change in vehicle-treated control and AMG 900-treated tumor volumes during the study period.

In the case of `Cc1csc(-c2nnc(Nc3ccc(Oc4ncccc4-c4ccnc(N)n4)cc3)c3ccccc23)c1` [AMG 900, N-(4-((3-(2-amino-4-pyrimidinyl)-2-pyridinyl)oxy)phenyl)-4-(4-methyl-2-thienyl)-1-phthalazinamine], the “concentrations inhibiting colony formation” value [1] is reported as ≥ 5 nmol/L, the IC50 [2] is reported as 3 nM and the EC50 ([3]; MES-SA Dx5*, Uterine, P-gp+, read-out: Cellular EC50) is reported as 2 nM. For the same molecule, the IC50 ([3]; MES-SA-Dx5 doxorubicin resistant, P-gp +) was 2 nM, the EC50 ([4]; MDA-MB-231-PTX*, Breast, P-gp+, read-out: Cellular EC50) was 3 nM and the IC50 ([4]; MDA-MB-231 PTX paclitaxel resistant, P-gp +) was 3 nM. The IC50 [5] was 3 nM, the IC50 [6] was 2 nM and the EC50 ([7]; NCI-H460-PTX*, Lung, P-gp+, read-out: Cellular EC50) was 3 nM. The IC50 ([7]; NCI-H460 PTX paclitaxel resistant, P-gp +) was 3 nM, the EC50 [8] was 1 nM and the EC50 [9] was 1 nM. For the same molecule, the “Maximum TGI (%)” value [10] was 85** %.

From US20120028917A1, “Use Of N-(4-((3-(2-Amino-4-Pyrimidinyl)-2-Pyridinyl)Oxy)Phenyl)-4-(4-Methyl-2-Thienyl)-1-Phthalazinamine In The Treatment Of Antimitotic Agent Resistant Cancer” (Amgen Inc., priority 2009, published 2012)
